Assay results published in US11058671B2, “Formulations and methods of manufacturing formulations for use in colonic evacuation” (RedHill Biopharma Ltd., priority 2012, dated 2021).

Test: Excipient compatibility study (colour change / ascorbic acid degradation)
Assay type: physicochemical
Details: presence of metallic cations (such as Cu2+, Fe3+, Zn2+)
Procedure: Excipient compatibility studies with all excipients against Na picosulfate and ascorbic acid were carried out. Antioxidants like Na meta-bisulphite, Na bisulphite and Na sulphite were added. Further, the study was carried out to determine if citric acid helped stabilize the colour change of ascorbic acid. Samples were assessed at 1 week, 2 weeks, 4 weeks and at 8 weeks.
Tertiary mixtures with components (250 mg MgO+500 mg AA+25 mg Sulphites (or 100 mg Acids) • MgO+ascorbic acid+Na meta-sulphite • MgO+ascorbic acid+Na bisulphite • MgO+ascorbic acid+Na sulphite • MgO+ascorbic acid+citric acid • MgO+ascorbic acid+tartaric acid • MgO+sodium ascorbate+Na meta-sulphite • MgO+sodium ascorbate+Na bisulphite • MgO+sodium ascorbate+Na sulphite • MgO+sodium ascorbate+citric acid • MgO+sodium ascorbate+tartaric acid Quaternary mixtures with components ((250 m, MgO+500 mg AA+20 mg NaP+25 Sulphites (or 100 mg acids) • MgO+Na picosulfate+ascorbic acid+Na meta-sulphite • MgO+Na picosulfate+ascorbic acid+Na bisulphite • MgO+Na picosulfate+ascorbic acid+Na sulphite • MgO+Na picosulfate+ascorbic acid+citric acid • MgO+Na Picosulfate+ascorbic acid+tartaric acid
Binary, tertiary and quaternary mixtures of the API and excipients at various ratios were prepared as follows: • 1. […] Add approximately half of the excipient quantity into a container. • 3. […]

O=C1O[C@H]([C@@H](O)CO)C(O)=C1O [ascorbic acid]
Degradation of ascorbic acid with excipients: degrades in the presence of metallic cations
